Earlier results in patent publication US20090004170A1, “COMPOSITION COMPRISING COENZYME Q10” (Kaneka Corporation, priority 2007, published 2009).

Experiments:
[1] = not given; remark: listed apart in the source

solubility in water: sparingly soluble | absorbability by oral ingestion [1]: extremely low
SMILES: COC1=C(OC)C(=O)C(C/C=C(\C)CC/C=C(\C)CC/C=C(\C)CC/C=C(\C)CC/C=C(\C)CC/C=C(\C)CC/C=C(\C)CC/C=C(\C)CC/C=C(\C)CCC=C(C)C)=C(C)C1=O [coenzyme Q10]
